According to paper PMC8016666, “A novel combination therapy targeting ubiquitin-specific protease 5 in MYCN-driven neuroblastoma” (Oncogene, 2021):

Target: T1, USP5 (Homo sapiens, UniProt P45974)
T1 construct: full-length
T1 sequence (P45974 2-858): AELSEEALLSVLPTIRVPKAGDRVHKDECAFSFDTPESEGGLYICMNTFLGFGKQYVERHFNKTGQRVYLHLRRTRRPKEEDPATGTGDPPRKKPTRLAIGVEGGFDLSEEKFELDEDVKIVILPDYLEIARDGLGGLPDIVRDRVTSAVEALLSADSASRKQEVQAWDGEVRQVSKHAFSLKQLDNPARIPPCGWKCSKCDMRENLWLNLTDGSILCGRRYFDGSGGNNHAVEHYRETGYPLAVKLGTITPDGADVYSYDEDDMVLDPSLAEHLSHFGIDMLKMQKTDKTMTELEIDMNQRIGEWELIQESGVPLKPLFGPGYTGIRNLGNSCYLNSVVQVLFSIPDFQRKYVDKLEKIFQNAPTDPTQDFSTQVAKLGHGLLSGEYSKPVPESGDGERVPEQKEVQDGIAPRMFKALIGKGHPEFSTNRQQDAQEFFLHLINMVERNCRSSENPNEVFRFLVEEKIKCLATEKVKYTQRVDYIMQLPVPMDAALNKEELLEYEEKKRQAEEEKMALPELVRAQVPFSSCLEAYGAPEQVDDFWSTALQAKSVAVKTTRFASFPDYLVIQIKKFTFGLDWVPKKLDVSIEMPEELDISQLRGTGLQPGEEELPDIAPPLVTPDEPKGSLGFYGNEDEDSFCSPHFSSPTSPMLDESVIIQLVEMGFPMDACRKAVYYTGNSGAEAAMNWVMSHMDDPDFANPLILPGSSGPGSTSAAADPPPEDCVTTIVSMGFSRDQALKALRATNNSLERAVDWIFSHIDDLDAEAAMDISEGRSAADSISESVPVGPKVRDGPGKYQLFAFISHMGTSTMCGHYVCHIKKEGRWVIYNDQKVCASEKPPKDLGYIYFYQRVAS
Assay: microscale thermophoresis with purified labelled USP5
Format: binding

Kd: 2760 nM
Compound: O=C(CCCCCCC(=O)Nc1ccccc1)NO [SAHA]
